# Patent US20250296953A1, “3,4-THIAZOLO-STEROIDS AND METHODS OF MAKING AND USING THE SAME” (Arkansas State University - Jonesboro, priority 2018, published 2025)
# Columns and labels:
# [1] = tested on: 60 different human tumor cell lines; test: NCI Development Therapeutics Program 60 cell line screen, one dose; type: cell-based
# [2] = tested on: SF-295; test: NCI 60 one dose screen; type: cell-based, human; conditions: for Growth Percent: one dose, CNS Cancer, SF-295
# [3] = tested on: SF-539; test: NCI 60 one dose screen; type: cell-based, human; conditions: for Growth Percent: one dose, CNS Cancer, SF-539
# [4] = tested on: HCT-15 (Colon Cancer); test: NCI 60 one dose screen; type: cell-based, human
# [5] = tested on: SK-MEL-25; test: Melanoma cytotoxicity assay (resazurin); type: cell-based; conditions: SK-MEL-25 melanoma cells, 24 hours with compound, resazurin; concentration not given
# Outline: (§1)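 Cells are plated at roughly 4000 per well and allowed 24 h before compound addition in triplicate. After a further 24 h, resazurin is added for 6 h and fluorescence measured; percent viability is normalized to DMSO-treated wells.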
# [6] = tested on: SK-MEL-5; test: Melanoma cytotoxicity assay (resazurin); type: cell-based; conditions: SK-MEL-5 melanoma cells, 24 hours with compound, resazurin; concentration not given
# Outline: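 Viability read by resazurin fluorescence (ex 544, em 590 nm) after 6 h, following 24 h compound exposure of cells plated 24 h earlier (~4000/well). Triplicate means, minus medium blank, divided by DMSO control; IC50 derived from sigmoidal dose-response curves.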
# [7] = tested on: SK-MEL-28; test: Melanoma cytotoxicity assay (resazurin); type: cell-based; conditions: SK-MEL-28 melanoma cells, 24 hours with compound, resazurin; concentration not given
# Outline: as §1
# [8] = tested on: NCI-H522 (NSCLC); test: NCI 60 one dose screen; type: cell-based, human; conditions: Non-small Cell Lung Cancer
# [9] = Non-small Cell Lung Cancer, A549/ATCC
# [10] = Non-small Cell Lung Cancer, EKVX
# [11] = Non-small Cell Lung Cancer, HOP-62
# [12] = Non-small Cell Lung Cancer, HOP-92
# [13] = Non-small Cell Lung Cancer, NCI-H23
# [14] = Non-small Cell Lung Cancer, NCI-H226
# [15] = Non-small Cell Lung Cancer, NCI-H322M
# [16] = Non-small Cell Lung Cancer, NCI-H460
compound,measurement,setting,value
"CN(c1ccccc1)c1nc2c(s1)CC[C@@]1(C)C2=CC[C@@H]2[C@@H]1CC[C@]1(C)C(=O)CC[C@@H]21 [IIa.6, (1S,2R,13R,14S,18S)-2,18-dimethyl-7-(N-methylanilino)-6-thia-8-azapentacyclo[11.7.0.02,10.05,9.014,18]icosa-5(9),7,10-trien-17-one]",Growth Percent,"[1]; Breast Cancer, BT-549",45.19%
same,Growth Percent,"[1]; Breast Cancer, HS 578T",54.53%
same,Growth Percent,"[1]; Breast Cancer, MCF7",32.55%
same,Growth Percent,"[1]; Breast Cancer, MDA-MB-231/ATCC",68.22%
same,Growth Percent,"[1]; Breast Cancer, MDA-MB-468",29.56%
same,Growth Percent,"[1]; Breast Cancer, T-47D",65.84%
same,Growth Percent,"[1]; CNS Cancer, SF-268",73.87%
same,Growth Percent,"[1]; CNS Cancer, SNB-19",54.72%
same,Growth Percent,"[1]; CNS Cancer, SNB-75",73.17%
same,Growth Percent,"[1]; CNS Cancer, U251",36.99%
same,Growth Percent,"[1]; Colon Cancer, COLO 205",48.79%
same,Growth Percent,"[1]; Colon Cancer, HCC-2998",82.14%
same,Growth Percent,"[1]; Colon Cancer, HCT-116",32.71%
same,Growth Percent,"[1]; Colon Cancer, HT29",10.25%
same,Growth Percent,"[1]; Colon Cancer, KM12",33.11%
same,Growth Percent,"[1]; Colon Cancer, SW-620",44.14%
same,Growth Percent,"[1]; Leukemia, CCRF-CEM",44.17%
same,Growth Percent,"[1]; Leukemia, HL-60(TB)",44.55%
same,Growth Percent,"[1]; Leukemia, MOLT-4",45.63%
same,Growth Percent,"[1]; Leukemia, RPMI-8226",48.36%
same,Growth Percent,"[1]; Leukemia, SR",31.74%
same,Growth Percent,"[1]; Melanoma, LOX IMVI",66.30%
same,Growth Percent,"[1]; Melanoma, M14",41.12%
same,Growth Percent,"[1]; Melanoma, MALME-3M",55.43%
same,Growth Percent,"[1]; Melanoma, MDA-MB-435",2.34%
same,Growth Percent,"[1]; Melanoma, SK-MEL-2",49.76%
same,Growth Percent,"[1]; Melanoma, SK-MEL-5",32.53%
same,Growth Percent,"[1]; Melanoma, SK-MEL-28",72.19%
same,Growth Percent,"[1]; Melanoma, UACC-62",38.23%
same,Growth Percent,"[1]; Melanoma, UACC-257",67.13%
same,Growth Percent,[1]; [9],47.72%
same,Growth Percent,[1]; [10],78.34%
same,Growth Percent,[1]; [11],70.07%
same,Growth Percent,[1]; [12],78.79%
same,Growth Percent,[1]; [13],79.64%
same,Growth Percent,[1]; [14],83.39%
same,Growth Percent,[1]; [15],89.66%
same,Growth Percent,[1]; [16],38.69%
same,Growth Percent,"[1]; Ovarian Cancer, IGROV1",67.27%
same,Growth Percent,"[1]; Ovarian Cancer, NCI/ADR-RES",43.96%
same,Growth Percent,"[1]; Ovarian Cancer, OVCAR-3",36.20%
same,Growth Percent,"[1]; Ovarian Cancer, OVCAR-4",83.97%
same,Growth Percent,"[1]; Ovarian Cancer, OVCAR-5",98.72%
same,Growth Percent,"[1]; Ovarian Cancer, OVCAR-8",76.81%
same,Growth Percent,"[1]; Ovarian Cancer, SK-OV-3",79.14%
same,Growth Percent,"[1]; Prostate Cancer, DU-145",79.22%
same,Growth Percent,"[1]; Prostate Cancer, PC-3",71.01%
same,Growth Percent,"[1]; Renal Cancer, 786-0",58.79%
same,Growth Percent,"[1]; Renal Cancer, A498",50.67%
same,Growth Percent,"[1]; Renal Cancer, ACHN",93.66%
same,Growth Percent,"[1]; Renal Cancer, CAKI-1",61.11%
same,Growth Percent,"[1]; Renal Cancer, RXF 393",79.66%
same,Growth Percent,"[1]; Renal Cancer, SN12C",77.26%
same,Growth Percent,"[1]; Renal Cancer, TK-10",91.08%
same,Growth Percent,"[1]; Renal Cancer, UO-31",79.34%
same,Growth Percent,[2],42.68%
same,Growth Percent,[3],51.35%
same,Growth Percent,[4],35.23%
same,SK-MEL-25 (% inhibition),[5],60%
same,SK-MEL-5 (% inhibition),[6],63%
same,SK-MEL-28 (% inhibition),[7],60%
same,Growth Percent,[8],8.26%
"(1S,2R,13R,14S,18S)-7-(3-fluorophenyl)-2,18-dimethyl-8-thia-6-azapentacyclo[11.7.0.02,10.05,9.014,18]icosa-5(9),7,10-trien-17-one [II.12]",Growth Percent,"[1]; Breast Cancer, BT-549",23.16%
same,Growth Percent,"[1]; Breast Cancer, HS 578T",27.43%
same,Growth Percent,"[1]; Breast Cancer, MCF7",10.76%
same,Growth Percent,"[1]; Breast Cancer, MDA-MB-231/ATCC",62.02%
same,Growth Percent,"[1]; Breast Cancer, MDA-MB-468",29.20%
same,Growth Percent,"[1]; Breast Cancer, T-47D",3.07%
same,Growth Percent,"[1]; CNS Cancer, SF-268",52.39%
same,Growth Percent,"[1]; CNS Cancer, SNB-19",60.01%
same,Growth Percent,"[1]; CNS Cancer, SNB-75",44.61%
same,Growth Percent,"[1]; CNS Cancer, U251",18.77%
same,Growth Percent,"[1]; Colon Cancer, COLO 205",44.55%
same,Growth Percent,"[1]; Colon Cancer, HCC-2998",79.47%
same,Growth Percent,"[1]; Colon Cancer, HCT-116",0.51%
same,Growth Percent,"[1]; Colon Cancer, HT29",5.21%
same,Growth Percent,"[1]; Colon Cancer, KM12",46.48%
same,Growth Percent,"[1]; Colon Cancer, SW-620",3.81%
same,Growth Percent,"[1]; Leukemia, CCRF-CEM",15.82%
same,Growth Percent,"[1]; Leukemia, HL-60(TB)",34.18%
same,Growth Percent,"[1]; Leukemia, K-562",7.01%
same,Growth Percent,"[1]; Leukemia, MOLT-4",5.82%
same,Growth Percent,"[1]; Leukemia, RPMI-8226",−2.88%
same,Growth Percent,"[1]; Leukemia, SR",5.11%
same,Growth Percent,"[1]; Melanoma, LOX IMVI",1.34%
same,Growth Percent,"[1]; Melanoma, M14",57.14%
same,Growth Percent,"[1]; Melanoma, MALME-3M",37.62%
same,Growth Percent,"[1]; Melanoma, MDA-MB-435",49.24%
same,Growth Percent,"[1]; Melanoma, SK-MEL-2",32.06%
same,Growth Percent,"[1]; Melanoma, SK-MEL-5",61.51%
same,Growth Percent,"[1]; Melanoma, SK-MEL-28",48.00%
same,Growth Percent,"[1]; Melanoma, UACC-62",34.85%
same,Growth Percent,"[1]; Melanoma, UACC-257",77.45%
same,Growth Percent,[1]; [9],55.01%
same,Growth Percent,[1]; [10],68.33%
same,Growth Percent,[1]; [11],50.54%
same,Growth Percent,[1]; [12],74.28%
same,Growth Percent,[1]; [13],62.70%
same,Growth Percent,[1]; [14],65.84%
same,Growth Percent,[1]; [15],69.34%
same,Growth Percent,[1]; [16],53.88%
same,Growth Percent,"[1]; Ovarian Cancer, IGROV1",0.60%
same,Growth Percent,"[1]; Ovarian Cancer, NCI/ADR-RES",68.33%
same,Growth Percent,"[1]; Ovarian Cancer, OVCAR-3",7.89%
same,Growth Percent,"[1]; Ovarian Cancer, OVCAR-4",65.10%
same,Growth Percent,"[1]; Ovarian Cancer, OVCAR-5",87.24%
same,Growth Percent,"[1]; Ovarian Cancer, OVCAR-8",28.53%
same,Growth Percent,"[1]; Ovarian Cancer, SK-OV-3",17.92%
same,Growth Percent,"[1]; Prostate Cancer, DU-145",22.88%
same,Growth Percent,"[1]; Prostate Cancer, PC-3",35.02%
same,Growth Percent,"[1]; Renal Cancer, 786-0",−10.07%
same,Growth Percent,"[1]; Renal Cancer, ACHN",11.90%
same,Growth Percent,"[1]; Renal Cancer, CAKI-1",36.88%
same,Growth Percent,"[1]; Renal Cancer, RXF 393",−22.47%
same,Growth Percent,"[1]; Renal Cancer, SN12C",42.89%
same,Growth Percent,"[1]; Renal Cancer, TK-10",24.03%
same,Growth Percent,"[1]; Renal Cancer, UO-31",1.08%
same,mean growth percent,"[2]; SF-295 (CNS cancer panel), 10 μM",−18.91%
same,Growth Percent,[2],−18.91%
same,mean growth percent,"[3]; SF-539 (CNS cancer panel), 10 μM",−33.43%
same,Growth Percent,[3],−33.43%
same,Growth Percent,[4],−38.17%
same,Growth Percent,[8],−36.55%
